Results as given in ChEMBL document CHEMBL4507267 (2021).

Columns and labels:
[1] = system: ALK tyrosine kinase receptor (Homo sapiens), Q9UM73 [L1196M]; details: Compound concentration 1000.0 nM
[2] = molecular target: Calcium/calmodulin-dependent protein kinase type II subunit alpha (Homo sapiens) (UniProt Q9UQM7); details: Compound concentration 1000.0 nM
[3] = molecular target: Dual specificity protein kinase CLK4 (Homo sapiens) (UniProt Q9HAZ1); details: Compound concentration 1000.0 nM
[4] = molecular target: Casein kinase I isoform gamma-3 (Homo sapiens) (UniProt Q9Y6M4); details: Compound concentration 1000.0 nM
Sequence of Casein kinase I isoform gamma-3 (Homo sapiens) (Q9Y6M4 whole entry, looked up, canonical isoform): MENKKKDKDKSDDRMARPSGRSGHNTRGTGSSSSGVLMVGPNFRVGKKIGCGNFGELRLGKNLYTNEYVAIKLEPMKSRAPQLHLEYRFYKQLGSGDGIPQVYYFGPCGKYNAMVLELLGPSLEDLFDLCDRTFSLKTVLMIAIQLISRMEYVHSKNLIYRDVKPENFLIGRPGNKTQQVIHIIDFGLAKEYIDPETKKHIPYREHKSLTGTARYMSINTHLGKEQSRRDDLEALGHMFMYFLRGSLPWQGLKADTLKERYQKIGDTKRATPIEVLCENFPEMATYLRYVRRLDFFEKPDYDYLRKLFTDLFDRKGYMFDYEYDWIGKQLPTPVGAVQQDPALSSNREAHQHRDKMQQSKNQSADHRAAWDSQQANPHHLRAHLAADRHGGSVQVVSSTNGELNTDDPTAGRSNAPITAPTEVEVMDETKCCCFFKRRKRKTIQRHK

[5] = system: Epidermal growth factor receptor (Homo sapiens), P00533 [UNDEFINED MUTATION]; details: Compound concentration 1000.0 nM
[6] = molecular target: Ephrin type-B receptor 6 (Homo sapiens) (UniProt O15197); details: Compound concentration 1000.0 nM
[7] = molecular target: Tyrosine-protein kinase Fer (Homo sapiens) (UniProt P16591); details: Compound concentration 1000.0 nM
[8] = molecular target: Fibroblast growth factor receptor 4 (Homo sapiens) (UniProt P22455); details: Compound concentration 1000.0 nM
[9] = molecular target: Vascular endothelial growth factor receptor 1 (Homo sapiens) (UniProt P17948); details: Compound concentration 1000.0 nM
[10] = molecular target: Receptor-type tyrosine-protein kinase FLT3 (Homo sapiens) (UniProt P36888); details: Compound concentration 1000.0 nM
[11] = molecular target: Vascular endothelial growth factor receptor 3 (Homo sapiens) (UniProt P35916); details: Compound concentration 1000.0 nM
[12] = molecular target: Cyclin-G-associated kinase (Homo sapiens) (UniProt O14976); details: Compound concentration 1000.0 nM
[13] = molecular target: Hormonally up-regulated neu tumor-associated kinase (Homo sapiens) (UniProt P57058); details: Compound concentration 1000.0 nM
[14] = molecular target: Inhibitor of nuclear factor kappa-B kinase subunit epsilon (Homo sapiens) (UniProt Q14164); details: Compound concentration 1000.0 nM
Sequence of Inhibitor of nuclear factor kappa-B kinase subunit epsilon (Homo sapiens) (Q14164 whole entry): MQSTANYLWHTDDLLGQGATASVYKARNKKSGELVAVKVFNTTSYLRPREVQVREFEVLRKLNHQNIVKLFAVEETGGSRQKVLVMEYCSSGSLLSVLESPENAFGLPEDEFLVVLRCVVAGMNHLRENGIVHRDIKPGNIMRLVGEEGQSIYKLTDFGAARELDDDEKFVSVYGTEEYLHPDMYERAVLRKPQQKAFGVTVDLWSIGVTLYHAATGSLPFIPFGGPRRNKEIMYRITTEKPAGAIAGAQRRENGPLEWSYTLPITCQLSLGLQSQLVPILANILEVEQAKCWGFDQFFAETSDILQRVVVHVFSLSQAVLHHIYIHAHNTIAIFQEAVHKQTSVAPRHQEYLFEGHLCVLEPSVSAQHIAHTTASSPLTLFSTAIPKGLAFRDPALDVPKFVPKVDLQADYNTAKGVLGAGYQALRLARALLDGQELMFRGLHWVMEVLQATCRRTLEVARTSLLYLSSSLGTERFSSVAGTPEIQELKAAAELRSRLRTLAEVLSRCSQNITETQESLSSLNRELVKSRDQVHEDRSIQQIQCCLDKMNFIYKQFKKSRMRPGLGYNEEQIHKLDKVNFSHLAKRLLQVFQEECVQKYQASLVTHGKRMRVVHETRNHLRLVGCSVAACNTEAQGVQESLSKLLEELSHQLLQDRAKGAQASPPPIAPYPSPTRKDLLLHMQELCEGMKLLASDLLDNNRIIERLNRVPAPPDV

[15] = molecular target: Tyrosine-protein kinase ITK/TSK (Homo sapiens) (UniProt Q08881); details: Compound concentration 1000.0 nM
[16] = system: Mast/stem cell growth factor receptor Kit (Homo sapiens), P10721 [D816H]; details: Compound concentration 1000.0 nM
[17] = molecular target: LIM domain kinase 1 (Homo sapiens) (UniProt P53667); details: Compound concentration 1000.0 nM
[18] = molecular target: Leucine-rich repeat serine/threonine-protein kinase 2 (Homo sapiens) (UniProt Q5S007); details: Compound concentration 1000.0 nM
[19] = molecular target: Mitogen-activated protein kinase kinase kinase 15 (Homo sapiens) (UniProt Q6ZN16); details: Compound concentration 1000.0 nM
[20] = molecular target: Mitogen-activated protein kinase kinase kinase kinase 3 (Homo sapiens) (UniProt Q8IVH8); details: Compound concentration 1000.0 nM
[21] = molecular target: Muscle, skeletal receptor tyrosine-protein kinase (Homo sapiens) (UniProt O15146); details: Compound concentration 1000.0 nM
[22] = molecular target: Serine/threonine-protein kinase Nek6 (Homo sapiens) (UniProt Q9HC98); details: Compound concentration 1000.0 nM
Sequence of Serine/threonine-protein kinase Nek6 (Homo sapiens) (Q9HC98 whole entry): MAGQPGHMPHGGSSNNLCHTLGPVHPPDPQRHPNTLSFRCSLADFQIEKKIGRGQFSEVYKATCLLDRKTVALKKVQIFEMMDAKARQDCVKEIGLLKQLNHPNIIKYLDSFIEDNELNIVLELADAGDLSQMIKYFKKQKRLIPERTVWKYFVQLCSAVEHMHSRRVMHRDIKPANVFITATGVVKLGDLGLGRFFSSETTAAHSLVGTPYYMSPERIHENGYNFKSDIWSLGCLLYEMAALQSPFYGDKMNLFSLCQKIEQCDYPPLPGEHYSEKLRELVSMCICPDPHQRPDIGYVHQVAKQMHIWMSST

[23] = molecular target: Serine/threonine-protein kinase Nek7 (Homo sapiens) (UniProt Q8TDX7); details: Compound concentration 1000.0 nM
[24] = molecular target: Mitogen-activated protein kinase 12 (Homo sapiens) (UniProt P53778); details: Compound concentration 1000.0 nM
Sequence of Mitogen-activated protein kinase 12 (Homo sapiens) (P53778 whole entry): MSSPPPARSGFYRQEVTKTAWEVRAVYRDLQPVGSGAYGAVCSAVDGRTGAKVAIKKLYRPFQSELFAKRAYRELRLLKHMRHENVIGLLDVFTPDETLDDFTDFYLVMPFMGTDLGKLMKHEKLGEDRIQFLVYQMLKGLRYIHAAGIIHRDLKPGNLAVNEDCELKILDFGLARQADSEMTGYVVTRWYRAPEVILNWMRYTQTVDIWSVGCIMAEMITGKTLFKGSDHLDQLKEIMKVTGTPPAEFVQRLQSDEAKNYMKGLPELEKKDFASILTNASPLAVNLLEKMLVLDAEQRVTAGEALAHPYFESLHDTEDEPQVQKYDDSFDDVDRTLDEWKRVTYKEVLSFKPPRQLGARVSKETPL

[25] = molecular target: Serine/threonine-protein kinase PAK 6 (Homo sapiens) (UniProt Q9NQU5); details: Compound concentration 1000.0 nM
[26] = molecular target: Cyclin-dependent kinase 17 (Homo sapiens) (UniProt Q00537); details: Compound concentration 1000.0 nM
Sequence of Cyclin-dependent kinase 17 (Homo sapiens) (Q00537 whole entry, looked up, canonical isoform): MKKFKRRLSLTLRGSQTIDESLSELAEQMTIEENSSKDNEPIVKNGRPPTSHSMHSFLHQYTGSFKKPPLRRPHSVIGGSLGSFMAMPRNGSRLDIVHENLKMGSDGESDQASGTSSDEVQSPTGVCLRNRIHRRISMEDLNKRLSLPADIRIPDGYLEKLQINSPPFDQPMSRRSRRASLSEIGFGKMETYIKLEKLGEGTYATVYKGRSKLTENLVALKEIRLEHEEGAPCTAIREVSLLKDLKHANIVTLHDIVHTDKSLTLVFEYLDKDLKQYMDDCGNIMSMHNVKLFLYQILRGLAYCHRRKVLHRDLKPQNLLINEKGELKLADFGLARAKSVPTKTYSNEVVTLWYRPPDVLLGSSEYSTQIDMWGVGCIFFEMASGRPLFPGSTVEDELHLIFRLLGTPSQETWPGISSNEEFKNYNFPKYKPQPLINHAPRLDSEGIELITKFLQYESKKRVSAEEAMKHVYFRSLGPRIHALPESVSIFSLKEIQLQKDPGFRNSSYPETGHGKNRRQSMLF

[27] = system: Phosphatidylinositol 4,5-bisphosphate 3-kinase catalytic subunit alpha isoform (Homo sapiens), P42336 [E542K]; details: Compound concentration 1000.0 nM
Sequence of Phosphatidylinositol 4,5-bisphosphate 3-kinase catalytic subunit alpha isoform (Homo sapiens), P42336 [E542K] (P42336 whole entry E542K, canonical isoform): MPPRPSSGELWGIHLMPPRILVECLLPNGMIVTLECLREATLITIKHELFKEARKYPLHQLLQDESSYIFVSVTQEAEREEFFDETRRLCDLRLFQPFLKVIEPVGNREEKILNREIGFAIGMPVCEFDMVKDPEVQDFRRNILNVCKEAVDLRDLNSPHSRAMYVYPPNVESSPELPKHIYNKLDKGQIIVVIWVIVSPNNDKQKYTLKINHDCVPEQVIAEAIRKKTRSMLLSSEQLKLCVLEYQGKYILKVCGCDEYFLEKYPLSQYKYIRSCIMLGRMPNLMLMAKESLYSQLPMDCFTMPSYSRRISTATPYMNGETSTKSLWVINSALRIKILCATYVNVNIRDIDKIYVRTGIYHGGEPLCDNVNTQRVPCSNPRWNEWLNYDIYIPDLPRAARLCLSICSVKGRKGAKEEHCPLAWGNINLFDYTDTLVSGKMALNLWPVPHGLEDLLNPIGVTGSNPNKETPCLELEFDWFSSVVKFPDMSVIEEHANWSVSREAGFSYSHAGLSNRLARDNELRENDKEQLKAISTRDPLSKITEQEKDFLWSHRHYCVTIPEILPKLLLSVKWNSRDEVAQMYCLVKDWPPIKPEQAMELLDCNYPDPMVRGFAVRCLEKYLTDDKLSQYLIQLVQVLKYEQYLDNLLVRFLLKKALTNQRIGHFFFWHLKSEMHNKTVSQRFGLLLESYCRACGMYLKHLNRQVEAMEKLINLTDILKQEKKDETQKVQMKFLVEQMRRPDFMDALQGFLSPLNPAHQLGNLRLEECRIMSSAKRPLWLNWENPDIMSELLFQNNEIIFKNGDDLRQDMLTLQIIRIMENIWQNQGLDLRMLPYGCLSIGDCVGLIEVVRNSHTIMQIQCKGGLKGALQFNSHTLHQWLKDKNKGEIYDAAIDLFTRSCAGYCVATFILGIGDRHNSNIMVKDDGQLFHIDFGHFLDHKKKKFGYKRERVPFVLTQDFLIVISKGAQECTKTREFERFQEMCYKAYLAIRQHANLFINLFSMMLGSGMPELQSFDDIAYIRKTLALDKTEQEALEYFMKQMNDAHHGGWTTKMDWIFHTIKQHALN

[28] = molecular target: Serine/threonine-protein kinase pim-2 (Homo sapiens) (UniProt Q9P1W9); details: Compound concentration 1000.0 nM
[29] = molecular target: Phosphatidylinositol 5-phosphate 4-kinase type-2 beta (Homo sapiens) (UniProt P78356); details: Compound concentration 1000.0 nM
[30] = molecular target: Serine/threonine-protein kinase D1 (Homo sapiens) (UniProt Q15139); details: Compound concentration 1000.0 nM
[31] = molecular target: cGMP-dependent protein kinase 1 (Homo sapiens) (UniProt Q13976); details: Compound concentration 1000.0 nM
[32] = molecular target: cGMP-dependent protein kinase 2 (Homo sapiens) (UniProt Q13237); details: Compound concentration 1000.0 nM
[33] = molecular target: Proto-oncogene tyrosine-protein kinase receptor Ret (Homo sapiens) (UniProt P07949); details: Compound concentration 1000.0 nM
[34] = molecular target: Receptor-interacting serine/threonine-protein kinase 1 (Homo sapiens) (UniProt Q13546); details: Compound concentration 1000.0 nM
[35] = molecular target: Dual serine/threonine and tyrosine protein kinase (Homo sapiens) (UniProt Q6XUX3); details: Compound concentration 1000.0 nM
[36] = molecular target: Ribosomal protein S6 kinase alpha-4 (Homo sapiens) (UniProt O75676); details: Compound concentration 1000.0 nM
[37] = molecular target: Ribosomal protein S6 kinase alpha-5 (Homo sapiens) (UniProt O75582); details: Compound concentration 1000.0 nM
[38] = molecular target: Serine/threonine-protein kinase Sgk1 (Homo sapiens) (UniProt O00141); details: Compound concentration 1000.0 nM
Sequence of Serine/threonine-protein kinase Sgk1 (Homo sapiens) (O00141 whole entry): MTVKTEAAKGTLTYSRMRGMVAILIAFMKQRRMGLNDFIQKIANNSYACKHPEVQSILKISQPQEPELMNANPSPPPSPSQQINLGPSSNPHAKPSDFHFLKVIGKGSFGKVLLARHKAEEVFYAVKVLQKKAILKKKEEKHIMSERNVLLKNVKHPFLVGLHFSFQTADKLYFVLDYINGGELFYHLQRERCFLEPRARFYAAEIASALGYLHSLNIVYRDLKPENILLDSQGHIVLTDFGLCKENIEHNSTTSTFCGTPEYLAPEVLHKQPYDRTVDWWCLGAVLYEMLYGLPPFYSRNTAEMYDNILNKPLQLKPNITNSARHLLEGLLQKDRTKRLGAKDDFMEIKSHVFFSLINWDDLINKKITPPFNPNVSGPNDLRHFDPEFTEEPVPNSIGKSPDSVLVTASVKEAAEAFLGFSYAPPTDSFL

[39] = molecular target: STE20-like serine/threonine-protein kinase (Homo sapiens) (UniProt Q9H2G2); details: Compound concentration 1000.0 nM
[40] = molecular target: SRSF protein kinase 2 (Homo sapiens) (UniProt P78362); details: Compound concentration 1000.0 nM
[41] = molecular target: Testis-specific serine/threonine-protein kinase 3 (Homo sapiens) (UniProt Q96PN8); details: Compound concentration 1000.0 nM
[42] = molecular target: Sodium-dependent dopamine transporter (Homo sapiens) (UniProt Q01959); details: Compound concentration 10.0 uM
[43] = molecular target: Alpha-2A adrenergic receptor (Homo sapiens) (UniProt P08913); details: Compound concentration 10.0 uM
[44] = molecular target: Beta-2 adrenergic receptor (Homo sapiens) (UniProt P07550); details: Compound concentration 10.0 uM
[45] = molecular target: Muscarinic acetylcholine receptor M3 (Homo sapiens) (UniProt P20309); details: Compound concentration 10.0 uM

Sequence of Dual specificity protein kinase CLK4 (Homo sapiens) (Q9HAZ1 whole entry, looked up, canonical isoform): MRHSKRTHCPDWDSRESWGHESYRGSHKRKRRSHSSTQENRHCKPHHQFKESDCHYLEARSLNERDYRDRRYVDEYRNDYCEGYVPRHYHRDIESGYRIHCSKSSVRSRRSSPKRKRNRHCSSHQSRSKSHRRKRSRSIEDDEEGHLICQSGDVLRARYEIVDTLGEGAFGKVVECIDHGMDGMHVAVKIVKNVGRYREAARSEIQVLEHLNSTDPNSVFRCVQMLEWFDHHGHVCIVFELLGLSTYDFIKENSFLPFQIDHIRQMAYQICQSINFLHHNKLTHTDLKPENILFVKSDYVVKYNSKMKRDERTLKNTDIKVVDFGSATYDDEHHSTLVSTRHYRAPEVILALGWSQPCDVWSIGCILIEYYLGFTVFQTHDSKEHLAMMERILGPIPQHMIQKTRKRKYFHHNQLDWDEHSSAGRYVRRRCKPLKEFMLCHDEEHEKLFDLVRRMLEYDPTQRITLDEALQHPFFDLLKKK
Sequence of Calcium/calmodulin-dependent protein kinase type II subunit alpha (Homo sapiens) (Q9UQM7 whole entry): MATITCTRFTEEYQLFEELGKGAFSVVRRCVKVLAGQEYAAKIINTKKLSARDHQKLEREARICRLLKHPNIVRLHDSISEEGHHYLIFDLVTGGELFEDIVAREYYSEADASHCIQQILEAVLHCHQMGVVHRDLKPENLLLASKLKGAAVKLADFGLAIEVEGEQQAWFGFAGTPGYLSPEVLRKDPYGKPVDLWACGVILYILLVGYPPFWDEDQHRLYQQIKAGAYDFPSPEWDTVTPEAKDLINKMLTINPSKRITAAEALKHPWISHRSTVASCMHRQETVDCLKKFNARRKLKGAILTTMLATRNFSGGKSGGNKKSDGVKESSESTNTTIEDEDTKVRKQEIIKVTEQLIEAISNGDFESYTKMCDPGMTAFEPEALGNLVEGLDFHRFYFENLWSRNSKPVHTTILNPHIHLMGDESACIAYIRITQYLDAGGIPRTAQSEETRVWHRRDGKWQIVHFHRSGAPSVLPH

Cc1c(NC(=O)c2cc(C(N)=O)nc3cc(F)ccc23)c(C(F)(F)F)nn1Cc1ccc(C(C)(C)C)cc1 [BAY-588]
inactive: residual activity [1] 83% | residual activity [2] 89% | residual activity [3] 100% | residual activity [4] 100% | residual activity [5] 77% | residual activity [6] 100% | residual activity [7] 100% | residual activity [8] 100% | residual activity [9] 100% | residual activity [10] 100% | residual activity [11] 91% | residual activity [12] 98% | residual activity [13] 100% | residual activity [14] 100% | residual activity [15] 95% | residual activity [16] 100% | residual activity [17] 100% | residual activity [18] 100% | residual activity [19] 95% | residual activity [20] 98% | residual activity [21] 97% | residual activity [22] 86% | residual activity [23] 100% | residual activity [24] 56% | residual activity [25] 100% | residual activity [26] 100% | residual activity [28] 100% | residual activity [29] 91% | residual activity [30] 100% | residual activity [31] 99% | residual activity [32] 100% | residual activity [33] 100% | residual activity [34] 100% | residual activity [35] 89% | residual activity [36] 100% | residual activity [37] 100% | residual activity [38] 100% | residual activity [39] 100% | residual activity [40] 97% | residual activity [41] 100% | inhibition [42] 14.7% | inhibition [43] 23.1% | inhibition [44] 24.1% | inhibition [45] 1.86%
active: residual activity [27] 43%

Cc1c(NC(=O)c2cc(C(N)=O)nc3cc(F)ccc23)c(C(F)(F)F)nn1Cc1ccc(C#N)cc1 [BAY-876]
inactive: residual activity [1] 83% | residual activity [2] 100% | residual activity [3] 87% | residual activity [4] 100% | residual activity [5] 83% | residual activity [6] 75% | residual activity [7] 99% | residual activity [8] 100% | residual activity [9] 98% | residual activity [10] 99% | residual activity [11] 100% | residual activity [12] 95% | residual activity [13] 77% | residual activity [14] 75% | residual activity [15] 78% | residual activity [16] 60% | residual activity [17] 78% | residual activity [18] 83% | residual activity [19] 100% | residual activity [20] 99% | residual activity [21] 95% | residual activity [22] 100% | residual activity [23] 99% | residual activity [24] 86% | residual activity [25] 100% | residual activity [26] 92% | residual activity [27] 84% | residual activity [28] 94% | residual activity [29] 88% | residual activity [30] 100% | residual activity [31] 100% | residual activity [32] 74% | residual activity [33] 94% | residual activity [34] 100% | residual activity [35] 78% | residual activity [36] 85% | residual activity [37] 97% | residual activity [38] 90% | residual activity [39] 100% | residual activity [40] 100% | residual activity [41] 82% | inhibition [42] 8.22% | inhibition [43] 0.0425% | inhibition [44] 21.7% | inhibition [45] -6.5%
